Columns and labels:
Amaranthus hybridus = test: Post-emergence herbicidal activity, efficacy on Amaranthus hybridus (Colby method); type: in vivo
Experimental: (§1) The following products were used for evaluating the weed control efficacy of present herbicidal combinations.
(§2) Methodology: Trials were carried out to evaluate the efficacy of the combinations comprising L-glufosinate ammonium and additional herbicides on Amaranthus genus weeds.
(§3) The soil used was sandy clay loam-sand: 68.0%; silt: 8.0%; clay: 24.0%.
(§4) All treatments were in 3 replications per treatment with a spray volume of 150 L/ha.
(§5) Efficacy Evaluation: The expected efficacy of the combination comprising L-glufosinate ammonium and additional herbicides was calculated using the well-established Colby method.
In the Colby method, the expected (or predicted) response of a combination of herbicides is calculated by taking the product of the observed response for each individual component of the combination when applied alone, divided by 100, and subtracting this value from the sum of the observed response for each component when applied alone. An unexpected enhancement in efficacy of the combination is then determined by comparing the observed response of the combination to the expected (or predicted) response as calculated from the observed response of each individual component alone. If the observed response of the combination is greater than the expected (or predicted) response, or stated conversely, if the difference between the observed and expected response is greater than zero, then the combination is said to be synergistic or unexpectedly effective (Colby, S. R., Weeds, 1967(15), p. 20-22). The Colby method requires only a single dose of each herbicide applied alone and the mixture of both doses. The formula used to calculate the expected efficacy (EE) which was compared with the observed efficacy (OE) to determine the efficacy of the present disclosure is explained herein:
The expected efficacy for a combination of two active ingredients is as follows:
The expected efficacy for a combination of three active ingredients is as follows:
[formula] • wherein, • A=Observed efficacy of active ingredient A at the same concentration as used in the mixture. • B=Observed efficacy of the active ingredient B at the same concentration as used in the mixture. • C=Observed efficacy of the active ingredient C at the same concentration as used in the mixture.
Experiment was conducted to assess the efficacy of herbicidal combination comprising L-glufosinate ammonium (glufosinate-P-ammonium) and saflufenacil to control the weed, Amaranthus hybridus.
The percentage efficacy was calculated after 3 days of applications (DAA). The target weed was Amaranthus hybridus, and the concentration of the herbicide and the results are recorded in Table 7.
Experiment was conducted to assess the efficacy of herbicidal combination comprising L-glufosinate ammonium, saflufenacil and triclopyr to control the weed Amaranthus hybridus.
The percentage efficacy was calculated after 3 DAA. The target weed was Amaranthus hybridus, and the concentration of the herbicide and the results are recorded in Table 8.
Experiment was conducted to assess the efficacy of herbicidal combination comprising L-glufosinate ammonium, saflufenacil and 2,4-D Choline to control the weed, Amaranthus hybridus.
The percentage efficacy was calculated after 3 DAA. The target weed was Amaranthus hybridus, and the concentration of the herbicide and the results are recorded in Table 9.
Experiment was conducted to assess the efficacy of herbicidal combination comprising L-glufosinate ammonium and quizalofop-ethyl to control the weed, Amaranthus hybridus.
The percentage efficacy was calculated after 3 DAA and 14 DAA. The target weed was Amaranthus hybridus, and the concentration of the herbicide and the results are recorded in Table 10.
Experiment was conducted to assess the efficacy of herbicidal combination comprising L-glufosinate ammonium and quizalofop-p-tefuryl to control the weed, Amaranthus hybridus
The percentage efficacy was calculated after 3 DAA and 14 DAA.

Amaranthus viridis = test: Post-emergence herbicidal activity, efficacy on Amaranthus viridis (Colby method); type: in vivo
Experimental: as §1, §2, §3, §4, §5
In the Colby method, the expected (or predicted) response of a combination of herbicides is calculated by taking the product of the observed response for each individual component of the combination when applied alone, divided by 100, and subtracting this value from the sum of the observed response for each component when applied alone. An unexpected enhancement in efficacy of the combination is then determined by comparing the observed response of the combination to the expected (or predicted) response as calculated from the observed response of each individual component alone. […]
The percentage efficacy was calculated after 3 DAA and 7 DAA. The target weed was Amaranthus viridis, and the concentration of the herbicide and the results are recorded in Table 12. […]

Structure (SMILES): C[N+](C)(C)CCO.O=C([O-])COc1ccc(Cl)cc1Cl [2,4-D Choline]
- Observed efficacy (%) of 2,4-D Choline (228 g a.i./ha) (Amaranthus hybridus; Table 9, 3 DAA, 228 g a.i./ha): 95%

Structure (SMILES): CS(=O)(=O)c1ccc(C(=O)C2C(=O)CCCC2=O)c([N+](=O)[O-])c1 [Mesotrione]
- Observed efficacy (%) of Mesotrione (100 g a.i./ha) (Amaranthus viridis; Table 12, 3 DAA): 10%
- Observed efficacy (%) of Mesotrione (100 g a.i./ha) (Amaranthus viridis; Table 12, 7 DAA): 30%

Structure (SMILES): CC(C)N(C)S(=O)(=O)NC(=O)c1cc(-n2c(=O)cc(C(F)(F)F)n(C)c2=O)c(F)cc1Cl [Saflufenacil]
- Observed efficacy (%) of Saflufenacil (30 g a.i./ha) (Amaranthus hybridus; Table 7, 3 DAA): 50%
- Observed efficacy (%) of Saflufenacil (30 g a.i./ha) (Amaranthus hybridus; Table 8, 3 DAA): 50%
- Observed efficacy (%) of Saflufenacil (30 g a.i./ha) (Amaranthus hybridus; Table 9, 3 DAA): 50%

Structure (SMILES): O=C(O)COc1nc(Cl)c(Cl)cc1Cl [Triclopyr]
- Observed efficacy (%) of Triclopyr (228 g a.i./ha) (Amaranthus hybridus; Table 8, 3 DAA, 228 g a.i./ha): 95%

Structure (SMILES): CCOC(=O)C(C)Oc1ccc(Oc2cnc3cc(Cl)ccc3n2)cc1 (centres unmarked) [quizalofop-ethyl, Quizalofop-ethyl]
- Observed efficacy (%) of quizalofop-ethyl (25 g a.i./ha) (Amaranthus hybridus; Table 10, 3 DAA): 0%
- Observed efficacy (%) of quizalofop-ethyl (25 g a.i./ha) (Amaranthus hybridus; Table 10, 14 DAA): 0%

Structure (SMILES): C[C@@H](Oc1ccc(Oc2cnc3cc(Cl)ccc3n2)cc1)C(=O)OCC1CCCO1 (some centres unmarked) [quizalofop-p-tefuryl, Quizalofop-p-tefuryl]
- Observed efficacy (%) of quizalofop-p-tefuryl (25 g a.i./ha) (Amaranthus hybridus; Table 11, 3 DAA): 0%
- Observed efficacy (%) of quizalofop-p-tefuryl (25 g a.i./ha) (Amaranthus hybridus; Table 11, 14 DAA): 0%

From patent US20250160332A1, “HERBICIDAL COMBINATIONS AND A METHOD FOR CONTROLLING UNDESIRED VEGETATION” (UPL MAURITIUS LIMITED, priority 2022, published 2025)
